Among the data in patent US9181238B2, “N-(pyridin-2-yl)sulfonamides and compositions thereof as protein kinase inhibitors” (NOVARTIS AG, priority 2010, dated 2015) are IC50 values, retold here.

The assay has as its system A375-luc cells. Nature of the assay: A375 Cellular Proliferation Assay. The assay is classed as cell-based. The note with it: Homo sapiens, A-375, 48 h; A375-luc melanoma cells (B-Raf V600E), 2 days incubation, BrightGlo luminescence; read-out: A375 CP IC50. On the procedure:
A375 Cellular Proliferation Assay
A375 is a melanoma cell line that harbors the B-Raf V600E mutation. A375-luc cells engineered to express luciferase are plated to 384-well white clear bottom plates as 1,500 cells/50 μl/well in DMEM containing 10% FBS. Compounds of the invention dissolved in 100% DMSO at appropriate concentrations are transferred to the cells by a robotic Pin Tool (100 nl). The cells are incubated for 2 days at […], then 25 μl of BrightGlo™ is added to each well and the plates are read by luminescence. The concentration of each compound for 50% inhibition (IC50) was calculated by non-linear regression using XL Fit data analysis software.
The term IC50 denotes the midpoint of a concentration-inhibition curve. For `CCCS(=O)(=O)Nc1ncc(F)c(-c2cc3cnc(NC[C@H](C)NC(=O)OC)nc3n(C)c2=O)c1F` [Compound 12, (S)-methyl 1-(6-(3,5-difluoro-2-(propylsulfonamido)pyridin-4-yl)-8-methyl-7-oxo-7,8-dihydropyrido[2,3-d]pyrimidin-2-ylamino)propan-2-ylcarbamate], the half-inhibitory concentration (IC50) is 14 nM.
Take `CCCS(=O)(=O)Nc1ncc(F)c(Nc2nccnc2-c2cc(NCC)ncn2)c1F` [Compound 1, N-(4-(3-(6-(Ethylamino)pyrimidin-4-yl)pyrazin-2-ylamino)-3,5-difluoropyridin-2-yl)propane-1-sulfonamide]: the IC50 was 13 nM.
For the molecule `CCCS(=O)(=O)Nc1ncc(F)c(Nc2nccnc2-c2cc(NCC(F)F)ncn2)c1F` [Compound 4, N-(4-(3-(6-(2,2-difluoroethylamino)pyrimidin-4-yl)pyrazin-2-ylamino)-3,5-difluoropyridin-2-yl)propane-1-sulfonamide], the IC50 turned out to be 12 nM.
For the molecule `CCCS(=O)(=O)Nc1ncc(F)c(Nc2nccnc2-c2cc(NC)ncn2)c1F` [Compound 5, N-(3,5-difluoro-4-(3-(6-(methylamino)pyrimidin-4-yl)pyrazin-2-ylamino)pyridin-2-yl)propane-1-sulfonamide], the IC50 was found to be 31 nM.
As for `CCCS(=O)(=O)Nc1ncc(F)c(Nc2nccnc2-c2cc(NCCC(F)(F)F)ncn2)c1F` [Compound 3, N-(3,5-difluoro-4-(3-(6-(3,3,3-trifluoropropylamino)pyrimidin-4-yl)pyrazin-2-ylamino)pyridin-2-yl)propane-1-sulfonamide], the IC50 amounted to 21 nM.
As for `CCCS(=O)(=O)Nc1ncc(F)c(Nc2nccnc2-c2cc(NCCC#N)ncn2)c1F` [Compound 2, N-(4-(3-(6-(2-cyanoethylamino)pyrimidin-4-yl)pyrazin-2-ylamino)-3,5-difluoropyridin-2-yl)propane-1-sulfonamide], the figure is 3 nM; as for `CCCS(=O)(=O)Nc1ncc(F)c(Nc2nccnc2-c2cc(NCCS(C)(=O)=O)ncn2)c1F` [Compound 8, N-(3,5-difluoro-4-(3-(6-(2-(methylsulfonyl)ethylamino)pyrimidin-4-yl)pyrazin-2-ylamino)pyridin-2-yl)propane-1-sulfonamide], 191 nM.
Then `CNc1ncc2cc(-c3c(F)cnc(NS(=O)(=O)CCC(F)(F)F)c3F)c(=O)n(C)c2n1` [Compound 14, N-(3,5-difluoro-4-(8-methyl-2-(methylamino)-7-oxo-7,8-dihydropyrido[2,3-d]pyrimidin-6-yl)pyridin-2-yl)-3,3,3-trifluoropropane-1-sulfonamide], with 130 nM; and `CCCS(=O)(=O)Nc1ncc(F)c(Nc2nccnc2-c2cc(NCC(F)(F)F)ncn2)c1F` [Compound 7, N-(3,5-difluoro-4-(3-(6-(2,2,2-trifluoroethylamino)pyrimidin-4-yl)pyrazin-2-ylamino)pyridin-2-yl)propane-1-sulfonamide], with 49 nM.
Then `CCCS(=O)(=O)Nc1nccc(-c2cc3cnc(NC)nc3n(C)c2=O)c1F` [Compound 11, N-(3-fluoro-4-(8-methyl-2-(methylamino)-7-oxo-7,8-dihydropyrido[2,3-d]pyrimidin-6-yl)pyridin-2-yl)propane-1-sulfonamide], with 229 nM; and `CCCS(=O)(=O)Nc1ncc(F)c(-c2cc3cnc(NC)nc3n(C)c2=O)c1F` [Compound 10, N-(3,5-difluoro-4-(8-methyl-2-(methylamino)-7-oxo-7,8-dihydropyrido[2,3-d]pyrimidin-6-yl)pyridin-2-yl)propane-1-sulfonamide], with 56 nM.
`CCCS(=O)(=O)Nc1ncc(F)c(Nc2nccnc2-c2cc(NCC)ncn2)c1Cl` [Compound 6, N-(3-chloro-4-(3-(6-(ethylamino)pyrimidin-4-yl)pyrazin-2-ylamino)-5-fluoropyridin-2-yl)propane-1-sulfonamide]: the IC50 turned out to be 121 nM.
Consider `CCCS(=O)(=O)Nc1ncc(F)c(-c2cc3cnc(NCC)cc3n(C)c2=O)c1F` [Compound 13, N-(4-(7-(Ethylamino)-1-methyl-2-oxo-1,2-dihydro-1,6-naphthyridin-3-yl)-3,5-difluoropyridin-2-yl)propane-1-sulfonamide], for which the IC50 came out at 10 nM.
Then `CCCS(=O)(=O)Nc1ncc(F)c(-c2cc3cnc(NCCC#N)cc3n(C)c2=O)c1F` [Compound 15, N-(4-(7-(2-cyanoethylamino)-1-methyl-2-oxo-1,2-dihydro-1,6-naphthyridin-3-yl)-3,5-difluoropyridin-2-yl)propane-1-sulfonamide], with 12 nM.
